Measurements published in paper PMC7419507, “In vitro Cas9-assisted editing of modular polyketide synthase genes to produce desired natural product derivatives” (Nature Communications, 2020).
Values joined by “and” are separate entries in the source; they are usually repeats but may differ in a detail not shown here. Equal values may be shown once.

Assays:
[1] = test system: Jurkat, SKOV-3 and MESO-1 cells; test: Cytotoxicity assay, statements for all tested cell lines together; format: cell-based; conditions: Jurkat, SKOV-3 and MESO-1 cells, 72 h
Outline: (§1)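 Incubate 4 h at 37 °C, 5% CO2. Add 2-fold compound dilutions, 0.5% DMSO. After 72 h, read CellTiter-Glo luminescence.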

[2] = Cytotoxicity assay (CellTiter-Glo, 72 h), SKOV-3; format: cell-based, human; conditions: human, raw replicate data, read-out: SKOV3 viability (%)
Outline: as §1

[3] = test system: human ovarian adenocarcinoma SKOV-3 cells; test: Cytotoxicity assay (CellTiter-Glo, 72 h), SKOV-3; format: cell-based; conditions: raw replicate data
Outline: as §1

[4] = biological target: T1, FKBP12 and mTOR (Homo sapiens, UniProt P42345+P62942); test: Fluoppi analysis: induction of FKBP12-mTOR complex formation in transfected HeLa cells; format: cell-based; conditions: for Foci intensity: raw data, one replicate per line
T1 construct: host or cells: HeLa cells
T1 sequence (P42345 2025-2114 limits assumed): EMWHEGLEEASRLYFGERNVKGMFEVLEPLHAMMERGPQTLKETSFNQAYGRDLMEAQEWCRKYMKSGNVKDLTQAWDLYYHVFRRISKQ
T1 sequence (P62942 whole entry): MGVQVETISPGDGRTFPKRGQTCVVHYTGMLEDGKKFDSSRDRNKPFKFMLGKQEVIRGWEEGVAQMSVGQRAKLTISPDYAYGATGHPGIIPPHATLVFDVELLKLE
Outline: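 Complex formation read as fluorescent foci: foci intensity over total per-cell intensity, imaged (×20, 9 fields/well) after fixation and Hoechst stain, giving EC50. Cells: HeLa transiently expressing hAG-mTOR and Ash-FKBP12, exposed to compound concentrations for 1 h at 37 °C.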

[5] = Cytotoxicity assay (CellTiter-Glo, 72 h), MESO-1; format: cell-based; conditions: human, MESO-1 malignant pleural mesothelioma cells, raw replicate data, read-out: MESO1 viability (%)
Outline: as §1

[6] = test system: malignant pleural mesothelioma MESO-1 cells; test: Cytotoxicity assay (CellTiter-Glo, 72 h), MESO-1; format: cell-based; conditions: raw replicate data
Outline: as §1

PPI-inducing (binding enhancing) activity between FKBP12 and mTOR compared with rapamycin (1), in words ([4]; Fluoppi): much less potent than 1
EC50 ([4]; Fluoppi, HeLa cells, 1 h treatment, three independent biological replicates, read-out: EC50, induction of the formation of FKBP-mTOR complex): 2130 nM
Foci intensity ([4]; conc 9.53674e-5 uM): 0.01583 and 0.01285 and 0.01813
Foci intensity ([4]; conc 0.000190735 uM): 0.02463 and 0.01296 and 0.02679
Foci intensity ([4]; conc 0.00038147 uM): 0.01747 and 0.03336 and 0.009483
Foci intensity ([4]; conc 0.000762939 uM): 0.01101 and 0.009441 and 0.01241
Foci intensity ([4]; conc 0.00152588 uM): 0.01354 and 0.009078 and 0.03888
Foci intensity ([4]; conc 0.00305176 uM): 0.02172 and 0.01712 and 0.01571
Foci intensity ([4]; conc 0.00610352 uM): 0.01274 and 0.01148 and 0.02185
Foci intensity ([4]; conc 0.012207 uM): 0.01853 and 0.03131 and 0.01125
Foci intensity ([4]; conc 0.0244141 uM): 0.04 and 0.01743 and 0.009054
Foci intensity ([4]; conc 0.0488281 uM): 0.01856 and 0.02257 and 0.02853
Foci intensity ([4]; conc 0.0976562 uM): 0.02191 and 0.01721 and 0.01479
Foci intensity ([4]; conc 0.195312 uM): 0.01663 and 0.02497 and 0.01905
Foci intensity ([4]; conc 0.390625 uM): 0.01986 and 0.02708 and 0.02914
Foci intensity ([4]; conc 0.78125 uM): 0.02045 and 0.02304 and 0.03319
Foci intensity ([4]; conc 1.5625 uM): 0.09025 and 0.08153 and 0.07652
Foci intensity ([4]; conc 3.125 uM): 0.2188 and 0.1724 and 0.1954
Foci intensity ([4]; conc 6.25 uM): 0.2549 and 0.2832 and 0.2819
Foci intensity ([4]; conc 12.5 uM): 0.2175 and 0.1877 and 0.2688
Foci intensity ([4]; conc 25 uM): 0.2553 and 0.272 and 0.2457
Foci intensity ([4]; conc 50 uM): 0.2721 and 0.2164 and 0.2636
SMILES: COC1CC2CCC(C)C(O)(O2)C(=O)C(=O)N2CCCCC2C(=O)OC(C(C)CC2CCC(O)C(OC)C2)CC(=O)C(C)C=C(C)C(O)CC(=O)C(C)C=C(C)C=CC=CC=C1C (stereo not shown) [Compound 14]
Effect on cell viability, in words [1]: slightly suppressed the cell viabilities
viability at 72 h, 9.53674e-05 uM ([2]; SKOV-3 cells (ovarian adenocarcinoma), conc 9.53674e-5 uM): 105%
viability at 72 h, 0.000190735 uM ([2]; SKOV-3 cells (ovarian adenocarcinoma), conc 0.000190735 uM): 103%
viability at 72 h, 0.00038147 uM ([2]; SKOV-3 cells (ovarian adenocarcinoma), conc 0.00038147 uM): 104%
viability at 72 h, 0.000762939 uM ([2]; SKOV-3 cells (ovarian adenocarcinoma), conc 0.000762939 uM): 102%
viability at 72 h, 0.00152588 uM ([2]; SKOV-3 cells (ovarian adenocarcinoma), conc 0.00152588 uM): 97.9%
viability at 72 h, 0.00305176 uM ([2]; SKOV-3 cells (ovarian adenocarcinoma), conc 0.00305176 uM): 98%
viability at 72 h, 0.00610352 uM ([2]; SKOV-3 cells (ovarian adenocarcinoma), conc 0.00610352 uM): 103%
viability at 72 h, 0.012207 uM ([2]; SKOV-3 cells (ovarian adenocarcinoma), conc 0.012207 uM): 97.1%
viability at 72 h, 0.0244141 uM ([2]; SKOV-3 cells (ovarian adenocarcinoma), conc 0.0244141 uM): 106%
viability at 72 h, 0.0488281 uM ([2]; SKOV-3 cells (ovarian adenocarcinoma), conc 0.0488281 uM): 100%
viability at 72 h, 0.0976562 uM ([2]; SKOV-3 cells (ovarian adenocarcinoma), conc 0.0976562 uM): 100%
viability at 72 h, 0.195312 uM ([2]; SKOV-3 cells (ovarian adenocarcinoma), conc 0.195312 uM): 97.3%
viability at 72 h, 0.390625 uM ([2]; SKOV-3 cells (ovarian adenocarcinoma), conc 0.390625 uM): 99.4%
viability at 72 h, 12.5 uM ([2]; SKOV-3 cells (ovarian adenocarcinoma), conc 12.5 uM): 81.9%
viability at 72 h, 25 uM ([2]; SKOV-3 cells (ovarian adenocarcinoma), conc 25 uM): 73.7%
viability at 72 h, 50 uM ([2]; SKOV-3 cells (ovarian adenocarcinoma), conc 50 uM): 60.7%
viability at 72 h, 0.78125 uM ([2]; SKOV-3 ovarian adenocarcinoma cells, conc 0.78125 uM): 93.1%
viability at 72 h, 1.5625 uM ([2]; SKOV-3 ovarian adenocarcinoma cells, conc 1.5625 uM): 91.2%
viability at 72 h, 3.125 uM ([2]; SKOV-3 ovarian adenocarcinoma cells, conc 3.125 uM): 84.5%
viability at 72 h, 6.25 uM ([2]; SKOV-3 ovarian adenocarcinoma cells, conc 6.25 uM): 78.2%
SKOV3 viability (%) ([3]; conc 9.53674e-5 uM): 98.4% and 95.5%
SKOV3 viability (%) ([3]; conc 0.000190735 uM): 101.1% and 93.2%
SKOV3 viability (%) ([3]; conc 0.00038147 uM): 101.8% and 98.2%
SKOV3 viability (%) ([3]; conc 0.000762939 uM): 98.4% and 94.2%
SKOV3 viability (%) ([3]; conc 0.00152588 uM): 99.8% and 104.2%
SKOV3 viability (%) ([3]; conc 0.00305176 uM): 98.8% and 92.1%
SKOV3 viability (%) ([3]; conc 0.00610352 uM): 101.4% and 103.8%
SKOV3 viability (%) ([3]; conc 0.012207 uM): 94.0% and 97.4%
SKOV3 viability (%) ([3]; conc 0.0244141 uM): 103.2% and 105.4%
SKOV3 viability (%) ([3]; conc 0.0488281 uM): 98.2% and 100.0%
SKOV3 viability (%) ([3]; conc 0.0976562 uM): 101.8% and 110.3%
SKOV3 viability (%) ([3]; conc 0.195312 uM): 98.6% and 95.1%
SKOV3 viability (%) ([3]; conc 0.390625 uM): 104.4%
SKOV3 viability (%) ([3]; conc 0.78125 uM): 86.0% and 88.0%
SKOV3 viability (%) ([3]; conc 1.5625 uM): 92.8% and 89.9%
SKOV3 viability (%) ([3]; conc 3.125 uM): 80.6% and 76.1%
SKOV3 viability (%) ([3]; conc 6.25 uM): 79.5%
SKOV3 viability (%) ([3]; conc 12.5 uM): 67.2% and 69.9%
SKOV3 viability (%) ([3]; conc 25 uM): 77.7% and 72.7%
SKOV3 viability (%) ([3]; conc 50 uM): 51.8% and 56.0%
viability at 72 h, 9.53674e-05 uM ([5]; conc 9.53674e-5 uM): 96.6%
viability at 72 h, 0.000190735 uM ([5]; conc 0.000190735 uM): 97.8%
viability at 72 h, 0.00038147 uM ([5]; conc 0.00038147 uM): 94.8%
viability at 72 h, 0.000762939 uM ([5]; conc 0.000762939 uM): 104%
viability at 72 h, 0.00152588 uM ([5]; conc 0.00152588 uM): 102%
viability at 72 h, 0.00305176 uM ([5]; conc 0.00305176 uM): 94.6%
viability at 72 h, 0.00610352 uM ([5]; conc 0.00610352 uM): 95.7%
viability at 72 h, 0.012207 uM ([5]; conc 0.012207 uM): 94.6%
viability at 72 h, 0.0244141 uM ([5]; conc 0.0244141 uM): 94.7%
viability at 72 h, 0.0488281 uM ([5]; conc 0.0488281 uM): 96.1%
viability at 72 h, 0.0976562 uM ([5]; conc 0.0976562 uM): 102%
viability at 72 h, 0.195312 uM ([5]; conc 0.195312 uM): 90.3%
viability at 72 h, 0.390625 uM ([5]; conc 0.390625 uM): 93.7%
viability at 72 h, 0.78125 uM ([5]; conc 0.78125 uM): 79%
viability at 72 h, 1.5625 uM ([5]; conc 1.5625 uM): 79.3%
viability at 72 h, 3.125 uM ([5]; conc 3.125 uM): 75%
viability at 72 h, 6.25 uM ([5]; conc 6.25 uM): 77.6%
viability at 72 h, 12.5 uM ([5]; conc 12.5 uM): 72.5%
viability at 72 h, 25 uM ([5]; conc 25 uM): 74.6%
viability at 72 h, 50 uM ([5]; conc 50 uM): 59.3%
MESO1 viability (%) ([6]; conc 9.53674e-5 uM): 99.4% and 103.8%
MESO1 viability (%) ([6]; conc 0.000190735 uM): 95.6% and 99.1%
MESO1 viability (%) ([6]; conc 0.00038147 uM): 104.7% and 94.5%
MESO1 viability (%) ([6]; conc 0.000762939 uM): 96.5%
MESO1 viability (%) ([6]; conc 0.00152588 uM): 101.1% and 98.7%
MESO1 viability (%) ([6]; conc 0.00305176 uM): 99.6% and 99.1%
MESO1 viability (%) ([6]; conc 0.00610352 uM): 100.1%
MESO1 viability (%) ([6]; conc 0.012207 uM): 95.8% and 96.3%
MESO1 viability (%) ([6]; conc 0.0244141 uM): 100.3% and 106.1%
MESO1 viability (%) ([6]; conc 0.0488281 uM): 100.9% and 99.1%
MESO1 viability (%) ([6]; conc 0.0976562 uM): 96.4% and 97.3%
MESO1 viability (%) ([6]; conc 0.195312 uM): 87.1% and 89.8%
MESO1 viability (%) ([6]; conc 0.390625 uM): 94.1% and 98.7%
MESO1 viability (%) ([6]; conc 0.78125 uM): 79.4% and 79.1%
MESO1 viability (%) ([6]; conc 1.5625 uM): 71.5% and 77.1%
MESO1 viability (%) ([6]; conc 3.125 uM): 73.4% and 72.1%
MESO1 viability (%) ([6]; conc 6.25 uM): 74.3% and 73.5%
MESO1 viability (%) ([6]; conc 12.5 uM): 68.9% and 72.8%
MESO1 viability (%) ([6]; conc 25 uM): 69.4% and 68.8%
MESO1 viability (%) ([6]; conc 50 uM): 60.5% and 62.4%
